{"source": "ChEMBL document CHEMBL5321223", "about": "“Effects and mechanism of action of Chrysanthemum morifolium (Jinsi Huangju) on hyperlipidemia and non-alcoholic fatty liver disease” (Eur J Med Chem, 2023)", "key": {"[1]": {"molecular_target": "T1, Pancreatic triacylglycerol lipase (Homo sapiens) (UniProt P16233)", "T1 sequence (whole entry)": "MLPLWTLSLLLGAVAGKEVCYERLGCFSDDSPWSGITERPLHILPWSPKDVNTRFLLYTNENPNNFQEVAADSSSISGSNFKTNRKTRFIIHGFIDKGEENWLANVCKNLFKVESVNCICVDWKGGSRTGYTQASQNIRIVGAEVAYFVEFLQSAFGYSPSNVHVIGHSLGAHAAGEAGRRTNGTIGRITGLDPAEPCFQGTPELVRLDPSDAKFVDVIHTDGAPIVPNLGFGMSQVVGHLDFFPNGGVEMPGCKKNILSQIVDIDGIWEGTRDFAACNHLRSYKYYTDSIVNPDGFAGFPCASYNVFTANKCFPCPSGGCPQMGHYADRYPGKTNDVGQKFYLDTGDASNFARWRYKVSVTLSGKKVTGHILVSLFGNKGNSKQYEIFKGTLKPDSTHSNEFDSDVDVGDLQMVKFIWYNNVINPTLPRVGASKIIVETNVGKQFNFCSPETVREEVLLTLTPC", "experiment": "Inhibition of Pancreatic lipase (unknown origin) using 4-methylumbelleallyl oleate as substrate at 50 uM by microplate reader assay"}, "[2]": {"molecular_target": "T1, Pancreatic triacylglycerol lipase (Homo sapiens)", "experiment": "Inhibition of Pancreatic lipase (unknown origin) using 4-methylumbelleallyl oleate as substrate at 5 uM by microplate reader assay"}, "HepG2 [3]": {"system": "HepG2", "experiment": "Cytotoxicity against human HepG2 cells assessed as reduction in cell survival at 50 uM", "assay_type": "toxicity, cell-based", "conditions": "hepg2, 50 µM"}, "HepG2 [4]": {"system": "HepG2", "experiment": "Hypolipidemic activity in sodium oleate and sodium palmitate induced human HepG2 cells assessed as decrease in intracellular lipid content at 50 uM by Oil Red O staining based assay", "assay_type": "functional", "design": "scale not given: the % may be the effect or the level left"}, "HepG2 [5]": {"system": "HepG2", "experiment": "Hypolipidemic activity in sodium oleate and sodium palmitate induced human HepG2 cells assessed as decrease in intracellular lipid content at 5 uM by Oil Red O staining based assay", "assay_type": "functional", "design": "scale not given: the % may be the effect or the level left"}}, "data": [{"smiles": "O=c1cc(-c2ccc(O)cc2)oc2cc(O[C@@H]3O[C@H](CO)[C@@H](O)[C@H](O)[C@H]3O)cc(O)c12", "note": "[APIGETRIN]", "values": [{"measurement": "inhibition", "setting": "[1]", "value": 59.1, "unit": "%"}, {"measurement": "inhibition", "setting": "[2]", "value": 13.2, "unit": "%"}, {"measurement": "Activity", "setting": "HepG2 [3]", "value": "Non-Toxic"}, {"measurement": "Activity", "setting": "HepG2 [4]", "value": 97.7, "unit": "%"}, {"measurement": "Activity", "setting": "HepG2 [5]", "value": 95.1, "unit": "%"}]}, {"smiles": "O=c1cc(-c2ccc(O)c(O)c2)oc2cc(O[C@@H]3O[C@H](CO)[C@@H](O)[C@H](O)[C@H]3O)cc(O)c12", "note": "[GALUTEOLIN]", "values": [{"measurement": "inhibition", "setting": "[1]", "value": 49.5, "unit": "%"}, {"measurement": "inhibition", "setting": "[2]", "value": 18.1, "unit": "%"}, {"measurement": "Activity", "setting": "HepG2 [3]", "value": "Non-Toxic"}, {"measurement": "Activity", "setting": "HepG2 [4]", "value": 53.2, "unit": "%"}, {"measurement": "Activity", "setting": "HepG2 [5]", "value": 62.5, "unit": "%"}]}, {"smiles": "O=c1cc(-c2ccc(O)cc2)oc2cc(O)cc(O)c12", "note": "[APIGENIN]", "values": [{"measurement": "inhibition", "setting": "[1]", "value": 56.3, "unit": "%"}, {"measurement": "inhibition", "setting": "[2]", "value": 26.7, "unit": "%"}, {"measurement": "Activity", "setting": "HepG2 [3]", "value": "Toxic"}, {"measurement": "Activity", "setting": "HepG2 [5]", "value": 92.4, "unit": "%"}]}]}
